Patent US8586755B2, “Substituted nicotinamides as KCNQ2/3 modulators” (Grünenthal GmbH, priority 2009, dated 2013)

Target: T1, KCNQ2/3 channels (Homo sapiens, UniProt O43525+O43526)
T1 construct: expressed in transfected cells
Assay: Fluorescence assay using a voltage sensitive dye (fluorimetry)
Type: cell-based
Conditions: CHO-K1 cells expressing KCNQ2/3 channels; for EC50: agonistic activity; for Emax / Fluorimetry % efficacy (retigabine 50 μM = 100%): retigabine 50 μM = 100%; for Emax: read-out: Fluorimetry % efficacy (retigabine 50 μM = 100%)
In short: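 Agonist EC50s come from the F2 vs F1 fluorescence comparison, F2 taken at the peak after KCl depolarisation (92 mM final) and F1 after 30 min compound exposure at room temperature. Assay uses KCNQ2/3-expressing CHO-K1 cells stained 45 min with a red voltage-sensitive dye in pH 7.4 ES buffer.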

SMILES	EC50	Emax	Fluorimetry % efficacy (retigabine 50 μM = 100%)
O=C(NCc1cccc(N2CCOCC2)c1)c1cccnc1SCCCc1ccc(F)cc1 [compound 138, 2-[3-(4-Fluorophenyl)-propylsulfanyl]-N-[(3-morpholin-4-yl-phenyl)-methyl]-pyridine-3-carboxylic acid amide]	417 nM	92%	–
O=C(NCC1C2CCC1CC2)c1cccnc1SCCCc1ccc(F)cc1 (centres unmarked) [compound 142, N-(7-Bicyclo[2.2.1]heptanyl-methyl)-2-[3-(4-fluorophenyl)-propylsulfanyl]-pyridine-3-carboxylic acid amide]	97 nM	260%	–
O=C(NCc1ccccn1)c1cccnc1SCCCc1ccc(F)cc1 [compound 143]	1510 nM	–	175%
O=C(NCc1nccs1)c1cccnc1SCCCc1ccc(F)cc1 [compound 144, 2-[3-(4-Fluorophenyl)-propylsulfanyl]-N-(thiazol-2-yl-methyl)-pyridine-3-carboxylic acid amide]	815 nM	215%	–
O=C(NCc1ncco1)c1cccnc1SCCCc1ccc(F)cc1 [compound 146, 2-[3-(4-Fluorophenyl)-propylsulfanyl]-N-(oxazol-2-yl-methyl)-pyridine-3-carboxylic acid amide]	2550 nM	193%	–
Cc1ccnc(SCCCc2ccc(F)cc2)c1C(=O)NCc1cccs1 [compound 147]	–	–	34%
CC(CCc1cccc(C(F)(F)F)c1)Sc1ncccc1C(=O)NCCC(C)(C)C (centres unmarked) [compound 149, N-(3,3-Dimethyl-butyl)-2-[[1-methyl-3-[3-(trifluoromethyl)phenyl]-propyl]sulfanyl]-pyridine-3-carboxylic acid amide]	93 nM	181%	–
O=C(NCc1ccc2cccnc2c1)c1cccnc1SCCCc1ccc(F)cc1 [compound 150, 2-[3-(4-Fluorophenyl)-propylsulfanyl]-N-(quinolin-7-yl-methyl)-pyridine-3-carboxylic acid amide]	1490 nM	96%	–
O=C(NCc1cccc(-c2ccccn2)c1)c1cccnc1SCCCc1ccc(F)cc1 [compound 151, 2-[3-(4-Fluorophenyl)-propylsulfanyl]-N-[(3-pyridin-2-yl-phenyl)-methyl]-pyridine-3-carboxylic acid amide]	667 nM	95%	–
O=C(NCc1cccc(-c2cccnc2)c1)c1cccnc1SCCCc1ccc(F)cc1 [compound 152, 2-[3-(4-Fluorophenyl)-propylsulfanyl]-N-[(3-pyridin-3-yl-phenyl)-methyl]-pyridine-3-carboxylic acid amide]	1290 nM	89%	–
CC(C)(C)CCNC(=O)c1cccnc1SC1CCCC1Cc1ccccc1 (centres unmarked) [compound 155, 2-[(2-Benzyl-cyclopentyl)sulfanyl]-N-(3,3-dimethyl-butyl)-pyridine-3-carboxylic acid amide]	657 nM	159%	–
O=C(NCc1nnco1)c1cccnc1SCCCc1ccc(F)cc1 [compound 158, 2-[3-(4-Fluorophenyl)-propylsulfanyl]-N-([1,3,4]oxadiazol-2-yl-methyl)-pyridine-3-carboxylic acid amide]	–	30%	–
O=C(NCc1cccc(-c2ccncc2)c1)c1cccnc1SCCCc1ccc(F)cc1 [compound 159, 2-[3-(4-Fluorophenyl)-propylsulfanyl]-N-[(3-pyridin-4-yl-phenyl)-methyl]-pyridine-3-carboxylic acid amide]	670 nM	113%	–
CN1CCOc2ccc(CNC(=O)c3cccnc3SCCCc3ccc(F)cc3)cc21 [compound 162, 2-[3-(4-Fluorophenyl)-propylsulfanyl]-N-[(4-methyl-3,4-dihydro-2H-[1,4]benzoxazin-6-yl)-methyl]-pyridine-3-carboxylic acid amide]	166 nM	83%	–
CC(C)(CCNC(=O)c1cccnc1SCCCc1ccc(F)cc1)c1ccccc1 [compound 163, 2-[3-(4-Fluorophenyl)-propylsulfanyl]-N-(3-methyl-3-phenyl-butyl)-pyridine-3-carboxylic acid amide]	537 nM	89%	–
O=C(NCc1ccc(F)cc1)c1cccnc1SCCC(F)(F)c1cccc(C(F)(F)F)c1 [compound 165, 2-[[3,3-Difluoro-3-[3-(trifluoromethyl)phenyl]-propyl]sulfanyl]-N-[(4-fluorophenyl)-methyl]-pyridine-3-carboxylic acid amide]	30 nM	119%	–
CC(C)(C)CCNC(=O)c1cccnc1SCCC(F)(F)c1cccc(C(F)(F)F)c1 [compound 166, 2-[[3,3-Difluoro-3-[3-(trifluoromethyl)phenyl]-propyl]sulfanyl]-N-(3,3-dimethyl-butyl)-pyridine-3-carboxylic acid amide]	46 nM	206%	–
CC(C)(C)CCNC(=O)c1cccnc1SCC(=O)Cc1ccccc1 [compound 167]	2710 nM	–	77%
COCCNC(=O)c1cccnc1SCCC(F)(F)c1ccc(F)cc1 [compound 171, 2-[[3,3-Difluoro-3-(4-fluorophenyl)-propyl]sulfanyl]-N-(2-methoxy-ethyl)-pyridine-3-carboxylic acid amide]	432 nM	181%	–
COCCNC(=O)c1cccnc1SCCCc1ccc(F)cc1 [compound 172, 2-[3-(4-Fluorophenyl)-propylsulfanyl]-N-(2-methoxy-ethyl)-pyridine-3-carboxylic acid amide]	1050 nM	196%	–
O=C(NCc1ccc(F)cc1O)c1cccnc1SCCCc1ccc(F)cc1 [compound 173, N-[(4-Fluoro-2-hydroxy-phenyl)-methyl]-2-[3-(4-fluorophenyl)-propylsulfanyl]-pyridine-3-carboxylic acid amide]	156 nM	185%	–

More lines, now with the values ahead:

EC50	Emax	Fluorimetry % efficacy (retigabine 50 μM = 100%)	SMILES
366 nM	93%	–	O=C(NCc1ccc2c(c1)OCCO2)c1cccnc1SCCCc1ccc(F)cc1 [compound 137, N-(2,3-Dihydro-[1,4]benzodioxin-6-yl-methyl)-2-[3-(4-fluorophenyl)-propylsulfanyl]-pyridine-3-carboxylic acid amide]
101 nM	81%	–	O=C(NCc1ccc2c(c1)OCC2)c1cccnc1SCCCc1ccc(F)cc1 [compound 139, N-(2,3-Dihydro-benzofuran-6-yl-methyl)-2-[3-(4-fluorophenyl)-propylsulfanyl]-pyridine-3-carboxylic acid amide]
312 nM	88%	–	O=C(NCc1cccc(-n2cccn2)c1)c1cccnc1SCCCc1ccc(F)cc1 [compound 140, 2-[3-(4-Fluorophenyl)-propylsulfanyl]-N-[[3-(1H-pyrazol-1-yl)-phenyl]-methyl]-pyridine-3-carboxylic acid amide]
12800 nM	86%	–	O=C(NCCCn1ccnn1)c1cccnc1SCCCc1ccc(F)cc1 [compound 141, 2-[3-(4-Fluorophenyl)-propylsulfanyl]-N-[3-(1H-[1,2,3]triazol-1-yl)-propyl]-pyridine-3-carboxylic acid amide]
1490 nM	174%	–	O=C(NCc1cncs1)c1cccnc1SCCCc1ccc(F)cc1 [compound 145, 2-[3-(4-Fluorophenyl)-propylsulfanyl]-N-(thiazol-5-yl-methyl)-pyridine-3-carboxylic acid amide]
1960 nM	85%	–	Cc1ccnc(SCCCc2ccc(F)cc2)c1C(=O)NCCC(C)(C)C [compound 148, N-(3,3-Dimethyl-butyl)-2-[3-(4-fluorophenyl)-propylsulfanyl]-4-methyl-pyridine-3-carboxylic acid amide]
1250 nM	155%	–	C[C@H](CCc1ccccc1)Sc1ncccc1C(=O)NCCC(C)(C)C [compound 153, N-(3,3-Dimethyl-butyl)-2-[[(1R)-1-methyl-3-phenyl-propyl]sulfanyl]-pyridine-3-carboxylic acid amide]
237 nM	207%	–	C[C@@H](CCc1ccccc1)Sc1ncccc1C(=O)NCCC(C)(C)C [compound 154, N-(3,3-Dimethyl-butyl)-2-[[(1S)-1-methyl-3-phenyl-propyl]sulfanyl]-pyridine-3-carboxylic acid amide]
110 nM	249%	–	O=C(NCC1C2CCC1CC2)c1cccnc1SCCCc1cccc(C(F)(F)F)c1 (centres unmarked) [compound 156, N-(7-Bicyclo[2.2.1]heptanyl-methyl)-2-[3-[3-(trifluoromethyl)phenyl]-propylsulfanyl]-pyridine-3-carboxylic acid amide]
–	88%	–	O=C(NCCCn1cncn1)c1cccnc1SCCCc1ccc(F)cc1 [compound 157, 2-[3-(4-Fluorophenyl)-propylsulfanyl]-N-[3-(1H-[1,2,4]triazol-1-yl)-propyl]-pyridine-3-carboxylic acid amide]
228 nM	74%	–	O=C(NCc1ccc2c(c1)N(CC1CC1)CCO2)c1cccnc1SCCCc1ccc(F)cc1 [compound 160, N-[[4-(Cyclopropyl-methyl)-3,4-dihydro-2H-[1,4]benzoxazin-6-yl]-methyl]-2-[3-(4-fluorophenyl)-propylsulfanyl]-pyridine-3-carboxylic acid amide]
145 nM	67%	–	CCN1CCOc2ccc(CNC(=O)c3cccnc3SCCCc3ccc(F)cc3)cc21 [compound 161, N-[(4-Ethyl-3,4-dihydro-2H-[1,4]benzoxazin-6-yl)-methyl]-2-[3-(4-fluorophenyl)-propylsulfanyl]-pyridine-3-carboxylic acid amide]
17 nM	110%	–	O=C(NCc1cccc(F)c1)c1cccnc1SCCC(F)(F)c1ccc(F)cc1 [compound 168, 2-[[3,3-Difluoro-3-(4-fluorophenyl)-propyl]sulfanyl]-N-[(3-fluorophenyl)-methyl]-pyridine-3-carboxylic acid amide]
